Experimental data from patent publication EP1976513B1 (priority 2006, dated 2007).
Structures can show the parent of a compound that is named as a salt. Where two headings read alike, the source gives them in different places.

Legend:
[1] = target: T1, human dopamine reuptake transporter (Homo sapiens, UniProt Q01959); assay: cell-based
T1 construct: expressed in transfected cells; host or cells: CHO-K1 or HEK293

[2] = target: human serotonin reuptake transporter (Homo sapiens, UniProt P31645); assay: cell-based
[3] = recombinant human dopamine transporter (DAT), read-out: Human IC50 (nM) hDAT
[4] = recombinant human serotonin transporter (SERT), read-out: Human IC50 (nM) hSERT
[5] = Human IC50 (nM) hSERT, recombinant human serotonin transporter (SERT)

T1 sequence (Q01959 whole entry): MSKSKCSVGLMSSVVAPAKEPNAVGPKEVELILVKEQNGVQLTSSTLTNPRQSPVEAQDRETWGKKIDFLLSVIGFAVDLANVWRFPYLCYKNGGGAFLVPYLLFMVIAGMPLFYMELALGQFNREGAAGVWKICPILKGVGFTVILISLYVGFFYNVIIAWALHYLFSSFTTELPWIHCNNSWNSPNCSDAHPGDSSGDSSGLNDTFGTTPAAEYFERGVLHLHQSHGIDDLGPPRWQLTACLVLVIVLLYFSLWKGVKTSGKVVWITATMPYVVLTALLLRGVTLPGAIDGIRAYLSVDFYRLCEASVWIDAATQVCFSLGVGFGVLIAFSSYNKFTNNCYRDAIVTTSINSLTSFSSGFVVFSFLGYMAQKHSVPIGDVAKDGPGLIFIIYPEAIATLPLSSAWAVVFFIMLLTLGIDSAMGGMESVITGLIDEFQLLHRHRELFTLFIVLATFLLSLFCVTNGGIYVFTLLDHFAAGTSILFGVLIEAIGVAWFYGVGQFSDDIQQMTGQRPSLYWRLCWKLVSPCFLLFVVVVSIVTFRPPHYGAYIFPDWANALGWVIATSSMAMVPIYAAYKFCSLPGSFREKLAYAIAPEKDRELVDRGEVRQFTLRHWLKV
Sequence of human serotonin reuptake transporter (P31645 whole entry): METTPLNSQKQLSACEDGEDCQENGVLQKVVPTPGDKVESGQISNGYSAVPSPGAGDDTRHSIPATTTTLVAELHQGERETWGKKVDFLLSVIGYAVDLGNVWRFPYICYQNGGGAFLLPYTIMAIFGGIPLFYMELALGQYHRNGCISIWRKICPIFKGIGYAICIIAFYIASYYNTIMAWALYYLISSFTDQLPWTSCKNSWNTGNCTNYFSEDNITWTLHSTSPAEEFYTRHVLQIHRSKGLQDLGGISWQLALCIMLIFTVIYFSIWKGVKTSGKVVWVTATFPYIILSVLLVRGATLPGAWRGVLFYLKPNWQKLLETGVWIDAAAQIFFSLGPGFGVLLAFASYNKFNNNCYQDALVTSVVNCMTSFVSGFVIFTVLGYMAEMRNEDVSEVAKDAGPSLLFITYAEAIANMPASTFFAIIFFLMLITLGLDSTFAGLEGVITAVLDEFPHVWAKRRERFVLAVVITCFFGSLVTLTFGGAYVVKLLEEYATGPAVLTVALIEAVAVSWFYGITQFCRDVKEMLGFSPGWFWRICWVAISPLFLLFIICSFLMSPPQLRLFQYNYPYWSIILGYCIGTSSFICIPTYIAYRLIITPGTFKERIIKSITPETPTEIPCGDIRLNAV

Compound | IC50 [1, 3] [nM] | IC50 [2, 4] [nM] | further results
OC1Cc2ccccc2C1NCC1(c2ccc(Cl)c(Cl)c2)CCCCC1 (racemic) [Compound 113, 1-((1-(3,4-dichlorophenyl)cyclohexyl)methylamino)-2,3-dihydro-1H-inden-2-ol] | 285 | 2570 | 
CC1CCCN(CC2(c3ccc(Cl)c(Cl)c3)CCCCC2)C1 (racemic) [Compound 114, 1-((1-(3,4-dichlorophenyl)cyclohexyl)methyl)-3-methylpiperidine] | 16 |  | IC50 ([2]; Human IC50 (nM) hSERT): > 10000 nM
CC1CCCN1CC1(c2ccc(Cl)c(Cl)c2)CCCCC1 (racemic) [Compound 115, 1-((1-(3,4-dichlorophenyl)cyclohexyl)methyl)-2-methylpyrrolidine] | < 1 |  | IC50 ([2]; Human IC50 (nM) hSERT): > 10000 nM
OC1CCCCC1NCC1(c2ccc(Cl)c(Cl)c2)CCCCC1 (racemic) [Compound 117, 2-((1-(3,4-dichlorophenyl)cyclohexyl)methylamino)cyclohexanol] | 33 | 7900 | 
NCC1(c2ccc3ccccc3c2)CC=CCC1 (racemic) [Compound 291, (1-(naphthalen-2-yl)cyclohex-3-enyl)methanamine] | 72 | 185 | 
CNCC1(c2ccc3ccccc3c2)CC=CCC1 (racemic) [Compound 292, N-methyl-1-(1-(naphthalen-2-yl)cyclohex-3-enyl)methanamine] |  |  | IC50 ([1]; Human IC50 (nM) hDAT): 89 nM; IC50 ([2]; read-out: Human IC50 (nM) hSERT): 360 nM
CNC(=O)[C@]1(c2ccc3ccccc3c2)CCCC[C@H]1O (relative stereo) [Compound 301, trans-2-hydroxy-N-methyl-1-(naphthalen-2-yl)cyclohexanecarboxamide] | 8780 | > 10000 | 
CC(N)C1(c2ccc(-c3ccoc3)cc2)CCCCC1 (single isomer, unassigned) [20 E1, 1-(1-(4-(furan-3-yl)phenyl)cyclohexyl)ethanamine] | 369 | 40 | 
CC(N)C1(c2ccc(-c3ccoc3)cc2)CCCCC1 (single isomer, unassigned) [20 E2, 1-(1-(4-(furan-3-yl)phenyl)cyclohexyl)ethanamine] | 437 | 60 | 
CC(N(C)C)C1(c2cccc3ccccc23)CCCCC1 (single isomer, unassigned) [60 E1, N,N-dimethyl-1-(1-(naphthalen-1-yl)cyclohexyl)ethanamine] | 748 | 184 | 
CC(N(C)C)C1(c2cccc3ccccc23)CCCCC1 (single isomer, unassigned) [60 E2, N,N-dimethyl-1-(1-(naphthalen-1-yl)cyclohexyl)ethanamine] | 6740 | 4630 | 
CCC(N(C)C)C1(c2ccc(Cl)c(Cl)c2)CCCCC1 (single isomer, unassigned) [61 E1, 1-(1-(3,4-dichlorophenyl)cyclohexyl)-N,N-dimethylpropan-1-amine] | 959 |  | IC50 [2, 5]: 5950 nM
CCC(N(C)C)C1(c2ccc(Cl)c(Cl)c2)CCCCC1 (single isomer, unassigned) [61 E2, 1-(1-(3,4-dichlorophenyl)cyclohexyl)-N,N-dimethylpropan-1-amine] | 116 |  | IC50 [2, 5]: 9440 nM
CC(N(C)C)C1(c2ccc(OC(F)(F)F)cc2)CCCCC1 (single isomer, unassigned) [63 E1, N,N-dimethyl-1-(1-(4-(trifluoromethoxy)phenyl)cyclohexyl)ethanamine] | 6540 | 194 | 
CC(N(C)C)C1(c2ccc(OC(F)(F)F)cc2)CCCCC1 (single isomer, unassigned) [63 E2, N,N-dimethyl-1-(1-(4-(trifluoromethoxy)phenyl)cyclohexyl)ethanamine] | 1820 | 2 | 
CNC(C)C1(c2ccc(OC(F)(F)F)cc2)CCCCC1 (single isomer, unassigned) [64 E1, N-methyl-1-(1-(4-(trifluoromethoxy)phenyl)cyclohexyl)ethanamine] |  | 58 | IC50 ([1]; Human IC50 (nM) hDAT): > 10000 nM
CNC(C)C1(c2ccc(OC(F)(F)F)cc2)CCCCC1 (single isomer, unassigned) [64 E2, N-methyl-1-(1-(4-(trifluoromethoxy)phenyl)cyclohexyl)ethanamine] |  | 32 | IC50 ([1]; Human IC50 (nM) hDAT): 3640 nM
CNCC1(c2ccc(OC)cc2)CCCCC1O (single isomer, unassigned) [139 E1, cis-2-((methylamino)methyl)-2-(4-methoxyphenyl)cyclohexanol] | > 10000 | > 10000 | 
CNCC1(c2ccc(OC)cc2)CCCCC1O (single isomer, unassigned) [139 E2, cis-2-((methylamino)methyl)-2-(4-methoxyphenyl)cyclohexanol] | > 10000 | > 10000 | 
CC1(O)CCCC(CN)(c2ccc(Cl)c(Cl)c2)C1 (single isomer, unassigned) [193 E1, 3-Aminomethyl-3-(3,4-dichloro-phenyl)-1-methyl-cyclohexanol] | 266 | 416 | 
CC1(O)CCCC(CN)(c2ccc(Cl)c(Cl)c2)C1 (single isomer, unassigned) [193 E2, 3-Aminomethyl-3-(3,4-dichloro-phenyl)-1-methyl-cyclohexanol] | 3160 | 957 | 
COC1CCCC(CN)(c2ccc(Cl)c(Cl)c2)C1 (single isomer, unassigned) [195 E2] | 5320 | 45 | 

Compound | IC50 [1, 3] [nM] | IC50 [2, 4] [nM] | further results
CNC(C)C1(c2ccc3ccccc3c2)CCC(C)(O)CC1 (single isomer, unassigned) [231 E1, 1-methyl-4-(1-(methylamino)ethyl)-4-(naphthalen-2-yl)cyclohexanol] | 460 | 1280 | 
CNC(C)C1(c2ccc3ccccc3c2)CCC(C)(O)CC1 (single isomer, unassigned) [231 E2, 1-methyl-4-(1-(methylamino)ethyl)-4-(naphthalen-2-yl)cyclohexanol] | 83 | 63 | 
CC(N(C)C)C1(c2ccc3ccccc3c2)CCC(C)(O)CC1 (single isomer, unassigned) [234 E1, 4-(1-(dimethylamino)ethyl)-1-methyl-4-(naphthalen-2-yl)cyclohexanol] | 346 | 3380 | 
CC(N(C)C)C1(c2ccc3ccccc3c2)CCC(C)(O)CC1 (single isomer, unassigned) [234 E2, 4-(1-(dimethylamino)ethyl)-1-methyl-4-(naphthalen-2-yl)cyclohexanol] | 21 | 18 | 
COC1CCCC(CN)(c2ccc(Cl)c(Cl)c2)C1 (single isomer, unassigned) [Compound 194] | 2370 | 330 | 
CN1Cc2c(ccc3c2OCO3)C2(CCC(C)(O)CC2)C1 (single isomer, unassigned) [Compound 294, 4',8-dimethyl-8,9-dihydro-7H-spiro([1,3]dioxolo[4,5-h]isoquinoline-6,1'-cyclohexan]-4'-ol] | > 10000 | > 10000 | 
CN1Cc2c(ccc3c2OCO3)C2(CCC(C)(O)CC2)C1 (single isomer, unassigned) [Compound 295, 4',8-dimethyl-8,9-dihydro-7H-spiro [[1,3]dioxolo[4,5-h]isoquinoline-6,1'-cyclohexan]-4'-ol] | > 10000 | > 10000 | 
NCC1(c2ccc(Cl)c(Cl)c2)CCC1 [Compound 1, (1-(3,4-dichlorophenyl)cyclobutyl)methanamine] | 103 | 1290 | 
CSc1ccc(C2(CN)CCCCC2)cc1 [Compound 10, (1-(4-(methylthio)phenyl)cyclohexyl)methanamine] | 2930 |  | IC50 [2, 5]: 1910 nM
CC(N)C1(c2ccc(-c3ccoc3)cc2)CCCCC1 (centres unmarked) [Compound 20, 1-(1-(4-(furan-3-yl)phenyl)cyclohexyl)ethanamine] | 275 | 24 | 
NCC1(c2ccc(-c3cc(F)cc(F)c3)cc2)CCCCC1 [Compound 23, (1-(3',5'-difluorobiphenyl-4-yl)cyclohexyl)methanamine] | 682 | 62 | 
NCC1(c2cccc(Cl)c2)CCCCC1 [Compound 28, (1-(3-chlorophenyl)cyclohexyl)methanamine hydrochloride] | 707 | 4560 | 
NCC1(c2ccc(Cl)cc2)CCCCC1 [Compound 29, (1-(4-chlorophenyl)cyclohexyl)methanamine hydrochloride] | 195 | 5240 | 
NCC1(c2ccc(C(F)(F)F)cc2)CCCCC1 [Compound 34, (1-(4-(trifluoromethyl)phenyl)-cyclohexyl)methanamine] | 5320 |  | IC50 [2, 5]: > 10000 nM
NCC1(c2ccc3c(c2)OCO3)CCCCC1 [Compound 35, (1-(benzo[d][1,3]dioxol-5-yl)cyclohexyl)methanamine] | 4710 |  | IC50 [2, 5]: > 10000 nM
NCC1(c2cccc(C(F)(F)F)c2)CCCCC1 [Compound 36, (1-(3-(trifluoromethyl)phenyl)-cyclohexyl)methanamine] | > 10000 |  | IC50 [2, 5]: 6550 nM
NCC1(c2cccc(F)c2)CCCCC1 [Compound 37, (1-(3-fluorophenyl)cyclohexyl)methanamine] | > 10000 |  | IC50 [2, 5]: > 10000 nM
NCC1(c2ccc3cc(F)ccc3c2)CCCCC1 [Compound 39, (1-(6-fluoronaphthalen-2-yl)cyclohexyl)methanamine] | 2240 | 295 | 
NCC1(c2ccc(F)c3ccccc23)CCCCC1 [Compound 40, (1-(4-fluoronaphthalen-1-yl)cyclohexyl)methanamine] | 2320 | 753 | 
CNCC1(c2ccc(Cl)c(Cl)c2)CCC1 [Compound 42, 1-(1-(3,4-dichlorophenyl)cyclobutyl)-N-methylmethanamine] | 761 | 935 | 
CSc1ccc(C2(CN(C)C)CCCCC2)cc1 [Compound 52, N,N-dimethyl-1-(1-(4-(methylthio)phenyl)cyclohexyl)methanamine] |  | 44 | IC50 ([1]; Human IC50 (nM) hDAT): 176 nM
